Data reported in US10024865B2, “Ubiquitination assay” (ITI Scotland Limited, priority 2010, dated 2018).
Where “and” joins values, the source holds several entries; their conditions need not be identical. Equal entries are not always repeated. Entries after “also recorded” stand apart in the source; their conditions may differ.

Tests used:
SCF^Skp2/Cks1 = test system: T1, SCF^Skp2/Cks1; experiment: 'Live' SCF^Skp2/Cks1 assay (E3 assay, p27 ubiquitination), ECL; assay type: biochemical, human; conditions: for follow up IC50 (in words): titration from 300 μM to 10 nM
T1 construct: 6His-Skp2-(isoform 1, hu,FL), GST-Skp1-; (hu,FL), 6His-Cul1-(hu,FL), UT-Rbx1-; 6His-Cks1-(hu,FL); 6His (N); GST (N); made in house
T1 sequence (Q13309 whole entry, canonical isoform): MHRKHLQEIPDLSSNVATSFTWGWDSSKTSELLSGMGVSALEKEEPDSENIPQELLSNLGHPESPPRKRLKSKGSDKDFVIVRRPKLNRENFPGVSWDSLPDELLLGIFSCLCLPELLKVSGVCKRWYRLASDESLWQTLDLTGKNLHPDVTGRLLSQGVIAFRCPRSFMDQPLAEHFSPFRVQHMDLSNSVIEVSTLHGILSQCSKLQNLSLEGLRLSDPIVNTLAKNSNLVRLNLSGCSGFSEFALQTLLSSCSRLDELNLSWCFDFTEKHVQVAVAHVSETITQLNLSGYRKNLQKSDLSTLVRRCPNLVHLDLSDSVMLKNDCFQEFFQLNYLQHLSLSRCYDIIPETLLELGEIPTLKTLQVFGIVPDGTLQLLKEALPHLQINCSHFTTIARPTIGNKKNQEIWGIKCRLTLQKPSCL
T1 sequence (P63208 1-160 isoform P63208-2, further chain): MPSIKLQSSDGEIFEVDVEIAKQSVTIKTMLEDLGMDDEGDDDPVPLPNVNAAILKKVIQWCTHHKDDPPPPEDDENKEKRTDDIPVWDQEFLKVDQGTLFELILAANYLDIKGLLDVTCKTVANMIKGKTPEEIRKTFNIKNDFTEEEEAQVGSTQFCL
T1 sequence (Q13616 whole entry, further chain, canonical isoform): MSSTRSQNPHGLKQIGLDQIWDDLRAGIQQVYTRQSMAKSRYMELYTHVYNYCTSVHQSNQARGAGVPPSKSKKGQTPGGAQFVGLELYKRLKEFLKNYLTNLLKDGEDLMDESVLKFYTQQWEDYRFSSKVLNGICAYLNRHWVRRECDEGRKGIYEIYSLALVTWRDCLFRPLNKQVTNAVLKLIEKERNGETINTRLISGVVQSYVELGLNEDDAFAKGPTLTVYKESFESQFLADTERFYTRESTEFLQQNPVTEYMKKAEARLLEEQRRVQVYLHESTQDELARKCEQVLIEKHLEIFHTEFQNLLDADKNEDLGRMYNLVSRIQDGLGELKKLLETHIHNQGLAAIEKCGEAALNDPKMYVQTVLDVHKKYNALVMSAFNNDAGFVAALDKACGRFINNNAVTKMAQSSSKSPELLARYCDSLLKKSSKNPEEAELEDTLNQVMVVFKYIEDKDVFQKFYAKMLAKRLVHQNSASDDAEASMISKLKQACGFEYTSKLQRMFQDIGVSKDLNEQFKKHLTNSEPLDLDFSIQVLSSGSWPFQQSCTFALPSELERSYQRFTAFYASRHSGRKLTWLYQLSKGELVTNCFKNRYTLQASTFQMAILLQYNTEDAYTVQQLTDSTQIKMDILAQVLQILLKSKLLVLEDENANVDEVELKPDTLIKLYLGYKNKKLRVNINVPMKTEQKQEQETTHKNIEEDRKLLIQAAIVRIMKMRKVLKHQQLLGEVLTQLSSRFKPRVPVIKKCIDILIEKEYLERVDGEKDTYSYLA
T1 sequence (P62877 whole entry, further chain, canonical isoform): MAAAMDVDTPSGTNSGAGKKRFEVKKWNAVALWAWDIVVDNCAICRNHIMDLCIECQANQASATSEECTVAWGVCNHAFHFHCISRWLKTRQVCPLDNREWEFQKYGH
T1 sequence (P61024 whole entry, further chain, canonical isoform): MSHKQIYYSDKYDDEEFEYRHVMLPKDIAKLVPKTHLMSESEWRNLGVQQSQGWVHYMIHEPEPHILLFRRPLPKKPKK
Description: FIG. 23 (a): ‘Live’ SCF^Skp2/Cks1 Assay—ECL ubiquitin titration. Used 60 minute incubation; 25 nM c-Myc p27; anti c-Myc capture for p27 (Millipore 05-274, 1/500); 5 nM E1; 1 μM E2 (HA); 25 nM E3/Cks1; 5 to 0.08 μM Ub; 1000 to 15 μM ATP; streptavidin sulfo tag (MSD, R32AD-1, 1 μg/ml). Hyperbolic increase in signal with [Ub]. Optimum signal after 2 μM ubiquitin. Largely […] of ATP concentration. […] Final assay concentration is set at 2 μM.
FIG. 23 (b): ‘Live’ SCF^Skp2/Cks1 Assay—ECL ATP titration. Used 60 minute incubation; 25 nM c-Myc p27; anti c-Myc capture for p27 (Millipore 05-274, 1/500); 5 nM E1; 1 μM E2 (HA); 25 nM E3/Cks1; 2 μM Ub; 1000 to 7 μM ATP; streptavidin sulfo tag (MSD, R32AD-1, 1 μg/ml). Initial experiments indicated a high signal which was independent of ATP concentration (lowest [ATP] of 21 μM)—indicative of tight binding. […] Km estimated at 4 μM. Final assay concentration set at 100 μM.
FIG. 30 (a): ‘Live’ SCF^Skp2/Cks1 Assay—ECL Inhibitor study—PYR-41 (E1 inhibitor).
FIG. 32: ‘Live’ SCF^Skp2/Cks1 Assay—ECL R140 Kinase inhibitor panel. Used 60 minute incubation; 25 nM c-Myc p27; anti-c-Myc capture for p27 (Millipore 05-274, 1/500); 5 nM E1; 1 μM E2 (HA); 25 nM E3 tetramer; 25 nM Cks1; 2 μM Ub; 100 μM ATP; streptavidin sulfo tag (MSD, R32AD-1, 1 μg/ml).
FIG. 34: ‘Live’ SCF^Skp2/Cks1 Assay—ECL follow up IC50s. Used 60 minute incubation; 25 nM c-Myc p27; anti c-Myc capture for p27 (Millipore 05-274, 1/500); 5 nM E1; 1 μM E2 (HA); 25 nM E3 tetramer; 25 nM Cks1; 2 μM Ub; 100 μM ATP; streptavidin sulfo tag (MSD, R32AD-1, 1 μg/ml). Titration of PYR41 (Calbiochem 662105) from 300 μM to 10 nM (control). Titration of Rottlerin, EGCG, AG538 and K252c from 300 μM to 10 nM.
(§1) Each of the assays in the p27 ubiquitination cascade (E1, E2 and E3) were tested against the E1 inhibitor PYR-41. No pre-charging of either the E1 or E2 was carried out prior to the introduction of the compound although in the E3 assay, p27 phosphorylation by CDK2/Cyclin E was carried out in the absence of inhibitor.
In order to test the feasibility of screening the E3 assay against a range of inhibitors, the assay was tested against a panel of 41 inhibitors (40 known kinase inhibitors and PYR-41) (FIG. 31). […] Using the same assay conditions, the E3 assay was tested against these inhibitors (FIG. 33).

Ube1 [1] = target: T2, Ube1 (Homo sapiens, UniProt P22314); experiment: Ube1 (E1) assay, ECL; assay type: biochemical; conditions: 50 nM E1, 2 μM Ub
T2 construct: 6His-UBE1-(hu,FL) (E1); made in house
T2 sequence (P22314 1-1058): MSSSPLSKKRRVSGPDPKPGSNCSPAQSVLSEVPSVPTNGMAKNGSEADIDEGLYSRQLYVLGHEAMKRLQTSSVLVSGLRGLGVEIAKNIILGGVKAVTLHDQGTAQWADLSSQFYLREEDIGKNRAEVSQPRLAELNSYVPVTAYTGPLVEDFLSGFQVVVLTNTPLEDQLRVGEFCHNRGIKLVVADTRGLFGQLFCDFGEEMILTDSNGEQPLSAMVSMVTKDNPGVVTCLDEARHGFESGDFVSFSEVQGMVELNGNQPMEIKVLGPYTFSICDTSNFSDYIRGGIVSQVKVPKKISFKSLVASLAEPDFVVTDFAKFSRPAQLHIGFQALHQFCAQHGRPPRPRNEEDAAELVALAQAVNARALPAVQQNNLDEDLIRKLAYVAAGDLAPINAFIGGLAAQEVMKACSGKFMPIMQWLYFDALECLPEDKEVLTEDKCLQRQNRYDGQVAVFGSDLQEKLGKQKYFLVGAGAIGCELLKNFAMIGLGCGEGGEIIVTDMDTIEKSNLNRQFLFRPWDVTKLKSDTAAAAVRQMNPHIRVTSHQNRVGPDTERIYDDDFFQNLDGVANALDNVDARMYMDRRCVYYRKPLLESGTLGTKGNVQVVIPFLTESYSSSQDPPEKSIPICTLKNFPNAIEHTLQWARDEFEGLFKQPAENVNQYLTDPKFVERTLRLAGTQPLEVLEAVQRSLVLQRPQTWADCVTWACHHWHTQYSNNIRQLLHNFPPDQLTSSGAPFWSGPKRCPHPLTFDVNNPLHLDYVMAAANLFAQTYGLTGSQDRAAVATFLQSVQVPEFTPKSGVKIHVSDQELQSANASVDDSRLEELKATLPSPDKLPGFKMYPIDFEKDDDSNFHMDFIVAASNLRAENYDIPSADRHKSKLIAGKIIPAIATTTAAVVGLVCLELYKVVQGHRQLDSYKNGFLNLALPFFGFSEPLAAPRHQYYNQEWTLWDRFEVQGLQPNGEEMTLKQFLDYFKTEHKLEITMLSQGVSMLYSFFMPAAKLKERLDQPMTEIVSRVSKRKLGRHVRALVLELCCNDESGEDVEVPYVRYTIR
Description: FIG. 11: Ube1 inhibitor study PYR41— ECL. Inhibitor study. Titration of PYR41 (Calbiochem 662105) from 300 μM to 10 nM. Used anti-His capture for E1 (Millipore, 16-255, 1/1000 dil); 50 nM E1; 2 μM Ub; 500 μM ATP; 30-minute pre-incubation with cpd.; 30 minute reaction time.
(§2) FIG. 30 (b): E1/E2 Assay—ECL Inhibitor study—PYR-41. Used 60 minute incubation; 2 μM Ub; 100 μM ATP. For E1 assay (Anti-His capture) 50 nM E1. For E2 assay (Anti HA-capture) 5 nM E1; 50 nM E2. Used streptavidin sulfo tag (MSD R32AD-1, 1 μg/ml); titration of PYR41 (Calbiochem 662105) from 300 μM to 10 nM.
For the IC50 determination of Pyr-41, the data shown is that from a 30 minute pre-incubation and a 30 minute assay. The assay was performed in a separate plate and then transferred. For information purposes, another set of assays were performed within the capture/detect plate and stopped immediately by washing off the assay solution, or washed after 60 min. It was interesting to note that even with the wash at time 0 an IC50 for the compound that was in line with the data shown could still be determined.
as §1

UbCH3 = target: T3, UbCH3 (Homo sapiens, UniProt P49427); experiment: UbCH3 (E2) assay, ECL (anti-HA capture); assay type: biochemical; conditions: 5 nM E1, 50 nM E2, 2 μM Ub, 100 μM ATP, 60 minute incubation
T3 construct: HA,6His-UbcH3-(hu,FL) (E2); made in house
T3 sequence (P49427 whole entry, one chain of several): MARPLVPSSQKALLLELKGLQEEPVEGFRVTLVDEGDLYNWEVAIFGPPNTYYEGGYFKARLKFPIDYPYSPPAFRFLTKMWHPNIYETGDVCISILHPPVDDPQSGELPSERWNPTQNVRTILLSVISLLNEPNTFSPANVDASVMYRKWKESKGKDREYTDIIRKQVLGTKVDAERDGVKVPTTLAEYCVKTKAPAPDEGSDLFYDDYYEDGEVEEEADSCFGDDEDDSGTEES
Description: as §2, §1

Ube1 [2] = target: T2, Ube1; experiment: E1 assay, HTRF; assay type: biochemical; conditions: 1 μM E1, 2 μM Ub, Anti-6His-K, 30 minutes pre-incubation
Description: (§3) FIG. 18: Ube1 Inhibitor study PYR41 in E1 and E1+E2 assay—HTRF. Inhibitor study: 30 minutes pre-incubation with PYR-41. Assays were immediately diluted followed by addition of 2 mM ATP.
(§4) Using conditions identified previously, an IC50 determination for Pyr-41 using the E1 and E1/E2 assays was performed. […] This may be a reflection of the higher enzyme concentrations used in the HTRF assay step (FIG. 18).

Ube1/UbCH3 = target: T4, Ube1/UbCH3 (Homo sapiens, UniProt P22314); experiment: E1+E2 (Ube1+UbCH3) assay, HTRF; assay type: biochemical; conditions: 100 nM E1, 1 μM E2, 400 nM Ub
T4 construct: 6His-UBE1-(hu,FL) (E1); made in house
T4 sequence (P22314 1-1058): T2 sequence (P22314 1-1058)
Description: as §3
BiogenNova quote IC50 value as ˜5 μM.
as §4

E1 = target: T5, E1 (Homo sapiens, UniProt P22314); conditions: cited from earlier work
T5 construct: literature BiogenNova / Calbiochem (quoted value)
T5 sequence (P22314 1-1058): T2 sequence (P22314 1-1058)

[3] = ECL E3 assay, kinase inhibitor panel screen

For CC(=O)c1c(O)c(C)c(O)c(Cc2c(O)c3c(c(C(=O)/C=C/c4ccccc4)c2O)OC(C)(C)C=C3)c1O [Rottlerin], the “inhibition in kinase inhibitor panel (in words)” value (“inhibition … (in words)” below) (SCF^Skp2/Cks1; [3]) was “show up as inhibitors; also recorded: moderate amounts of inhibition” and the “follow up IC50 (in words)” value (SCF^Skp2/Cks1; ECL E3 assay) was “in the μM range”.
CCOC(=O)c1ccc(N2NC(=O)/C(=C/c3ccc([N+](=O)[O-])o3)C2=O)cc1 [PYR-41] showed an IC50 (Ube1 [1]; 500 μM ATP, 30 minute pre-incubation with cpd, 30 minute reaction time) of 1.3 µM, an IC50 (Ube1 [1]; anti-His capture, 100 μM ATP, 60 minute incubation) of 7.8 µM and an IC50 (UbCH3) of 3.2 µM. For the same molecule, the “inhibition in panel of 41 inhibitors” value (SCF^Skp2/Cks1; [3]) was over 80%, the IC50 (SCF^Skp2/Cks1; ECL, 25 nM c-Myc p27, 5 nM E1, 1 μM E2, 25 nM E3 tetramer, 25 nM Cks1, 2 μM Ub, 100 μM ATP, 60 minute incubation) was 55 µM and 84 µM and the IC50 (Ube1 [2]) was 43 µM. The IC50 (Ube1/UbCH3; Anti-6His-K detection) was 16 µM, the IC50 (Ube1/UbCH3; Anti-FLAG-K detection) was 20 µM and the “reported values for the inhibitor (in words)” value (E1; literature) was “low micromolar range”. The IC50 (E1; quoted by BiogenNova / Calbiochem, vs. E1) was about 5 µM.
For N#C/C(=C\c1ccc(O)c(O)c1)C(=O)c1ccc(O)c(O)c1 [AG538], the “inhibition … (in words)” value (SCF^Skp2/Cks1; [3]) was “show up as inhibitors”.
Nc1ncnc2c1ncn2[C@@H]1O[C@H](COP(=O)(O)OP(=O)(O)OP(=O)(O)O)[C@@H](O)[C@H]1O [ATP, Adenosine-5′-Triphosphate] gave a Km (SCF^Skp2/Cks1; ECL E3 assay, ATP titration 1000 to 7 μM, 2 μM Ub, read-out: apparent Km for ATP) of about 4 µM.
For O=C(O[C@@H]1Cc2c(O)cc(O)cc2O[C@@H]1c1cc(O)c(O)c(O)c1)c1cc(O)c(O)c(O)c1 [EGCG], the “inhibition … (in words)” value (SCF^Skp2/Cks1; [3]) was “show up as inhibitors; also recorded: moderate amounts of inhibition” and the “follow up IC50 (in words)” value (SCF^Skp2/Cks1; ECL E3 assay) was “in the μM range”.
With O=C1NCc2c1c1c3ccccc3[nH]c1c1[nH]c3ccccc3c21 [K252c] the “inhibition … (in words)” value (SCF^Skp2/Cks1; [3]) was “show up as inhibitors; also recorded: moderate amounts of inhibition” and the “follow up IC50 (in words)” value (SCF^Skp2/Cks1; ECL E3 assay) was “false positive result”.
